Laboratory results taken from patent US20250115669A1, “FGFR1/KLB Targeting Agonistic Antigen-Binding Proteins and Conjugates Thereof with GLP-1R Agonistic Peptides” (SANOFI, priority 2020, published 2025).
Like-named read-outs stand apart in the source and are kept apart here. Bridge positions count the residues as written; N and C are the ends. Ends that are not written are not given here. Peptide text beside a SMILES is read from it.

Assays:
Format in all cases: cell-based
[1] = molecular target: T1, human GLP-1 receptor (Homo sapiens, UniProt P43220); assay: HTRF cAMP assay in HEK-293 cells expressing human GLP-1 receptor
T1 construct: expressed in transfected cells; host or cells: PSC-HEK-293
T1 sequence (P43220 24-463): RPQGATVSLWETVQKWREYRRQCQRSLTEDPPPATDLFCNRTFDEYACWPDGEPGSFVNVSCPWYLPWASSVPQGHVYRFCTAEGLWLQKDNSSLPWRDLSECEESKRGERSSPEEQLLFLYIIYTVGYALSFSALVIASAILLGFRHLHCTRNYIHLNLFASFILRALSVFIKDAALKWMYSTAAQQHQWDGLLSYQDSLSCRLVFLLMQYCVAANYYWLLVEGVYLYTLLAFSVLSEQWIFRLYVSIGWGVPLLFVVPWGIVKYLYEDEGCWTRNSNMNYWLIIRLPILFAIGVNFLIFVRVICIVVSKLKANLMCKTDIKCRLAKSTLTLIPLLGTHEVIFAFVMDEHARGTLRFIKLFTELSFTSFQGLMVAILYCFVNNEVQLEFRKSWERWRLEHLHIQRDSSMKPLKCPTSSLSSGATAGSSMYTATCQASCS
Experimental: (§1) Each vial contained 1.8 ml cells. The vials were slowly frozen to −80° C. in isopropanol, and then transferred in liquid nitrogen for storage.
(§2) Cells were resuspended in assay buffer (cell buffer plus 2 mM IBMX) and adjusted to a cell density of 1 million cells/ml.
(§3) For measurement of cAMP generation, 5 μl cells (final 5000 cells/well) and 5 μl of test compound were added to a 384-well plate, followed by incubation for 30 min at room temperature.
(§4) The cAMP generated was determined using a kit from Cisbio Corp. based on HTRF (Homogenous Time Resolved Fluorescence). The cAMP assay was performed according to manufacturer's instructions (Cisbio).

[2] = molecular target: T2, human glucagon (GCG) receptor (Homo sapiens, UniProt P47871); assay: HTRF cAMP assay in HEK-293 cells expressing human glucagon receptor
T2 construct: expressed in transfected cells; host or cells: PSC-HEK-293
T2 sequence (P47871 26-477): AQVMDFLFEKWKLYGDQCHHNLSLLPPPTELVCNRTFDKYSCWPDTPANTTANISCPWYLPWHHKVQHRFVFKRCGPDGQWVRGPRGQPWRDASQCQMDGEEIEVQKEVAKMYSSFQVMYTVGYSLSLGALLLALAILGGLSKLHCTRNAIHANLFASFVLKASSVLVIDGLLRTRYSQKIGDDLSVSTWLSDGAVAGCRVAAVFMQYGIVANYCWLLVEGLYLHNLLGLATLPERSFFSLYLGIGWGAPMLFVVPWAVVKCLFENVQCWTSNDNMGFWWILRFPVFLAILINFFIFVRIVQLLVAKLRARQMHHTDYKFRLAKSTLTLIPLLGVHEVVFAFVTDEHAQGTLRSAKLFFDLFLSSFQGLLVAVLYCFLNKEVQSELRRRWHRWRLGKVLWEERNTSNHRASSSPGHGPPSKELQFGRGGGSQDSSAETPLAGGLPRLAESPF
Experimental: as §1, §2, §3, §4

[3] = molecular target: T3, human GIP receptor (Homo sapiens, UniProt P48546); assay: HTRF cAMP assay in HEK-293 cells expressing human GIP receptor
T3 construct: expressed in transfected cells; host or cells: PSC-HEK-293
T3 sequence (P48546 22-466): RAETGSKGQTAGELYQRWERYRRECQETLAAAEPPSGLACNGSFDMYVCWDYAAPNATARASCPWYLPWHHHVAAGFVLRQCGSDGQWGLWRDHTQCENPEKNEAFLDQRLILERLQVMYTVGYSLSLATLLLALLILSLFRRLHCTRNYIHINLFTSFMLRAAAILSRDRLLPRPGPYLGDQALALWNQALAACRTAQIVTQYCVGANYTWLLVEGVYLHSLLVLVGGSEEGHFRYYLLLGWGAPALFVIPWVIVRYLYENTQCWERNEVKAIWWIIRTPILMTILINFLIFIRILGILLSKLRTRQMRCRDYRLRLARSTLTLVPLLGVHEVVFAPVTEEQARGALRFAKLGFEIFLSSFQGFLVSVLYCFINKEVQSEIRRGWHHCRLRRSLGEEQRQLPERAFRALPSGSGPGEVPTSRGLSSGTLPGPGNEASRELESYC
Experimental: as §1, §2, §3, §4

[4] = HEK-293 cells, read-out: HTRF cAMP EC50 Human GLP-1R
[5] = HEK-293 cells, read-out: HTRF cAMP EC50 Human GCGR
[6] = HEK-293 cells, read-out: HTRF cAMP EC50 Human GIPR

| EC50 [1, 4] | EC50 [2, 5] | EC50 [3, 6] | Molecule | EC50 [1] | EC50 [2] | EC50 [3] |
| --- | --- | --- | --- | --- | --- | --- |
| 0.0017 nM | > 10 nM | > 10 nM | CC[C@H](C)[C@H](NC(=O)[C@H](CC(C)C)NC(=O)[C@H](Cc1c[nH]c2ccccc12)NC(=O)[C@H](CC(C)C)NC(=O)[C@@H](NC(=O)[C@H](Cc1ccccc1)NC(=O)[C@H](CC(C)C)NC(=O)[C@H](CCCNC(=N)N)NC(=O)[C@@H](NC(=O)[C@H](CC(C)C)NC(=O)[C@H](CCCNC(=N)N)NC(=O)[C@H](CCCCN)NC(=O)[C@H](CCC(=O)O)NC(=O)[C@H](CC(C)C)NC(=O)[C@H](CCC(N)=O)NC(=O)[C@H](CCCCN)NC(=O)[C@H](CO)NC(=O)[C@H](CCCCN)NC(=O)[C@H](CC(=O)O)NC(=O)[C@H](CO)NC(=O)[C@@H](NC(=O)[C@H](Cc1ccccc1)NC(=O)[C@@H](NC(=O)CNC(=O)[C@H](CCC(=O)O)NC(=O)CNC(=O)[C@@H](N)Cc1c[nH]cn1)[C@@H](C)O)[C@@H](C)O)C(C)C)[C@@H](C)CC)C(=O)N[C@@H](C)C(=O)NCC(=O)NCC(=O)N[C@@H](Cc1c[nH]cn1)C(=O)N[C@@H](CO)C(=O)N[C@@H](CO)C(=O)NCC(=O)N[C@@H](CCCCN)C(=O)N1CCC[C@H]1C(=O)N1CCC[C@H]1C(=O)N1CCC[C@H]1C(=O)N[C@@H](CCCCN)C(N)=O [Ab P023] (H-HGEGTFTSDKSKQLEKRLVRLFILWLIAGGHSSGKPPPK-NH2; N-terminus assumed) |  |  |  |
|  |  |  | CC[C@H](C)[C@H](NC(=O)[C@H](Cc1ccccc1)NC(=O)[C@H](CC(C)C)NC(=O)[C@H](CCCNC(=N)N)NC(=O)[C@@H](NC(=O)[C@H](C)NC(=O)[C@H](CCC(=O)O)NC(=O)[C@H](CCC(=O)O)NC(=O)[C@H](CCC(=O)O)NC(=O)[C@H](CC(C)C)NC(=O)[C@H](CCC(N)=O)NC(=O)[C@H](CCCCN)NC(=O)[C@H](CO)NC(=O)[C@H](CCCCN)NC(=O)[C@H](CC(=O)O)NC(=O)[C@H](CO)NC(=O)[C@@H](NC(=O)[C@H](Cc1ccccc1)NC(=O)[C@@H](NC(=O)CNC(=O)[C@H](CCC(=O)O)NC(=O)CNC(=O)[C@H](Cc1c[nH]cn1)NC(=O)CN)[C@@H](C)O)[C@@H](C)O)C(C)C)C(=O)N[C@@H](CCC(=O)O)C(=O)N[C@@H](Cc1c[nH]c2ccccc12)C(=O)N[C@@H](CC(C)C)C(=O)N[C@@H](CCCCN)C(=O)N[C@@H](C)C(=O)NCC(=O)NCC(=O)N1CCC[C@H]1C(=O)N[C@@H](CO)C(=O)N[C@@H](CO)C(=O)NCC(=O)N[C@@H](C)C(=O)N1CCC[C@H]1C(=O)N1CCC[C@H]1C(=O)N1CCC[C@H]1C(=O)N[C@@H](CO)C(N)=O [Ab P021] (H-GHGEGTFTSDKSKQLEEEAVRLFIEWLKAGGPSSGAPPPS-NH2) | 0.0276 nM | > 10 nM | > 10 nM |
| 0.0026 nM | > 10 nM | ≥ 10 nM | CC[C@H](C)[C@H](NC(=O)[C@H](CC(C)C)NC(=O)[C@H](Cc1c[nH]c2ccccc12)NC(=O)[C@H](Cc1ccc(O)cc1)NC(=O)[C@@H](NC(=O)[C@H](Cc1ccccc1)NC(=O)[C@H](CC(C)C)NC(=O)[C@H](CCCNC(=N)N)NC(=O)[C@@H](NC(=O)[C@H](CC(C)C)NC(=O)[C@H](CCCNC(=N)N)NC(=O)[C@H](CCCCN)NC(=O)[C@H](CCC(=O)O)NC(=O)[C@H](CC(C)C)NC(=O)[C@H](CCC(N)=O)NC(=O)[C@H](CCCCN)NC(=O)[C@H](CO)NC(=O)[C@H](CCCCN)NC(=O)[C@H](CC(=O)O)NC(=O)[C@H](CO)NC(=O)[C@@H](NC(=O)[C@H](Cc1ccccc1)NC(=O)[C@@H](NC(=O)CNC(=O)[C@H](CCC(=O)O)NC(=O)CNC(=O)[C@@H](N)Cc1c[nH]cn1)[C@@H](C)O)[C@@H](C)O)C(C)C)[C@@H](C)CC)C(=O)N[C@@H](C)C(=O)NCC(=O)NCC(=O)N[C@@H](Cc1c[nH]cn1)C(=O)N[C@@H](CO)C(=O)N[C@@H](CO)C(=O)NCC(=O)N[C@@H](CCCCN)C(=O)N1CCC[C@H]1C(=O)N1CCC[C@H]1C(=O)N1CCC[C@H]1C(=O)N[C@@H](CCCCN)C(N)=O [Ab P024] (H-HGEGTFTSDKSKQLEKRLVRLFIYWLIAGGHSSGKPPPK-NH2; N-terminus assumed) |  |  |  |
| 0.0156 nM | > 10 nM | > 10 nM | CC[C@H](C)[C@H](NC(=O)[C@H](Cc1ccccc1)NC(=O)[C@H](CC(C)C)NC(=O)[C@H](CCC(N)=O)NC(=O)[C@@H](NC(=O)[C@H](C)NC(=O)[C@H](CCC(=O)O)NC(=O)[C@H](CCC(=O)O)NC(=O)[C@H](CCC(=O)O)NC(=O)[C@H](CC(C)C)NC(=O)[C@H](CCC(N)=O)NC(=O)[C@H](CCCCN)NC(=O)[C@H](CO)NC(=O)[C@H](CC(C)C)NC(=O)[C@H](CC(=O)O)NC(=O)[C@H](CO)NC(=O)[C@@H](NC(=O)[C@H](Cc1ccccc1)NC(=O)[C@@H](NC(=O)CNC(=O)[C@H](CCC(=O)O)NC(=O)CNC(=O)[C@H](Cc1c[nH]cn1)NC(=O)CN)[C@@H](C)O)[C@@H](C)O)C(C)C)C(=O)N[C@@H](CCC(=O)O)C(=O)N[C@@H](Cc1c[nH]c2ccccc12)C(=O)N[C@@H](CC(C)C)C(=O)N[C@@H](CCCCN)C(=O)N[C@@H](C)C(=O)NCC(=O)NCC(=O)N1CCC[C@H]1C(=O)N[C@@H](CCCCN)C(=O)N[C@@H](CCCCN)C(=O)N[C@H](C(=O)N[C@@H](CCCNC(=N)N)C(=O)N[C@@H](Cc1ccc(O)cc1)C(=O)N[C@@H](CO)C(N)=O)[C@@H](C)CC [Ab P015] (H-GHGEGTFTSDLSKQLEEEAVQLFIEWLKAGGPKKIRYS-NH2; N-terminus assumed) |  |  |  |
| 0.0524 nM | > 10 nM | > 10 nM | CC[C@H](C)[C@H](NC(=O)[C@H](Cc1ccccc1)NC(=O)[C@H](CC(C)C)NC(=O)[C@H](CCC(N)=O)NC(=O)[C@@H](NC(=O)[C@H](C)NC(=O)[C@H](CCC(=O)O)NC(=O)[C@H](CCC(=O)O)NC(=O)[C@H](CCC(=O)O)NC(=O)[C@H](CC(C)C)NC(=O)[C@H](CCC(N)=O)NC(=O)[C@H](CCCCN)NC(=O)[C@H](CO)NC(=O)[C@H](CC(C)C)NC(=O)[C@H](CC(=O)O)NC(=O)[C@H](CO)NC(=O)[C@@H](NC(=O)[C@H](Cc1ccccc1)NC(=O)[C@@H](NC(=O)CNC(=O)[C@H](CCC(=O)O)NC(=O)CNC(=O)[C@H](Cc1c[nH]cn1)NC(=O)CN)[C@@H](C)O)[C@@H](C)O)C(C)C)C(=O)N[C@@H](CCC(=O)O)C(=O)N[C@@H](Cc1c[nH]c2ccccc12)C(=O)N[C@@H](CC(C)C)C(=O)N[C@@H](CCCCN)C(=O)N[C@@H](C)C(=O)NCC(=O)NCC(=O)N1CCC[C@H]1C(=O)N[C@@H](CO)C(=O)N[C@@H](CO)C(=O)NCC(=O)N[C@@H](CCCCN)C(=O)N1CCC[C@H]1C(=O)N1CCC[C@H]1C(=O)N1CCC[C@H]1C(=O)N[C@@H](CCCCN)C(N)=O [Ab P038] (H-GHGEGTFTSDLSKQLEEEAVQLFIEWLKAGGPSSGKPPPK-NH2; N-terminus assumed) |  |  |  |
| 0.0203 nM | > 10 nM | > 10 nM | HGEGTFTSDLSKQCEEERVQLFIEWLKATGPSSGKPPPKPGC-NH2 (disulfide 14-42) [Ab P035] |  |  |  |
| 0.002 nM | 3.9 nM | 2.48 nM | CC[C@H](C)[C@H](NC(=O)[C@H](Cc1ccccc1)NC(=O)[C@H](CC(C)C)NC(=O)[C@H](CCCNC(=N)N)NC(=O)[C@H](CCC(N)=O)NC(=O)[C@H](CC(C)C)NC(=O)[C@H](CCCNC(=N)N)NC(=O)[C@H](CCCCN)NC(=O)[C@H](CCC(=O)O)NC(=O)[C@H](CC(C)C)NC(=O)[C@H](CCC(N)=O)NC(=O)[C@H](CCCCN)NC(=O)[C@H](CO)NC(=O)[C@H](CC(C)C)NC(=O)[C@H](CC(=O)O)NC(=O)[C@H](CO)NC(=O)[C@@H](NC(=O)[C@H](Cc1ccccc1)NC(=O)[C@@H](NC(=O)CNC(=O)[C@H](CCC(=O)O)NC(=O)CNC(=O)[C@@H](N)Cc1c[nH]cn1)[C@@H](C)O)[C@@H](C)O)C(=O)N[C@@H](Cc1ccc(O)cc1)C(=O)N[C@@H](Cc1c[nH]c2ccccc12)C(=O)N[C@@H](CC(C)C)C(=O)N[C@@H](CCCCN)C(=O)N[C@@H](C)C(=O)NCC(=O)NCC(=O)N[C@@H](Cc1c[nH]cn1)C(=O)N[C@@H](CO)C(=O)N[C@@H](CO)C(=O)NCC(=O)N[C@@H](CCCCN)C(=O)N1CCC[C@H]1C(=O)N1CCC[C@H]1C(=O)N1CCC[C@H]1C(=O)N[C@@H](CCCCN)C(N)=O [Ab P026] (H-HGEGTFTSDLSKQLEKRLQRLFIYWLKAGGHSSGKPPPK-NH2; N-terminus assumed) |  |  |  |
